This note sets out measurements from ChEMBL document CHEMBL4261494, “Design, synthesis and biological evaluation of novel Schiff base-bridged tetrahydroprotoberberine triazoles as a new type of potential antimicrobial agents” (Medchemcomm, 2017).

In brackets after ≈: the same amount, converted by molar mass. Activity calls are given as the source filed them. No cut-off for these calls is given here.

The subject of data set [1] is Staphylococcus aureus. The format is functional. Particulars: ATCC 25923, 24 h.
A further data set deals with Micrococcus luteus. The format is functional. Particulars: ATCC 4698, 24 h.
Data set [2] relates to Staphylococcus aureus. As to the kind of experiment: Antibacterial activity against methicillin-resistant Staphylococcus aureus N315 after 5 passages. The format is functional, organism-based.
For data set [3], the system named is Staphylococcus aureus. The format is functional. The note with it: N315, 24 h.
A further data set deals with Proteus vulgaris. The format is functional. Particulars: ATCC 13315, 24 h.
In the next data set the test system is Bacillus spizizenii. The format is functional. Particulars: ATCC 6633, 24 h.
Data set [4] concerns Escherichia coli. The format is functional. Particulars: DH52, 24 h.
The subject of data set [5] is Salmonella typhi. As to the kind of experiment: microbe, parasite or virus in culture. The note with it: Salmonella enterica, 24 h.
For data set [6], the system named is Escherichia coli. The format is functional. Particulars: JM109, 24 h.
Another data set deals with Shigella dysenteriae. The format is functional. Particulars: 24 h.
The next data set deals with Pseudomonas aeruginosa. The format is functional. The note with it: ATCC 27853, 24 h.
The next data set relates to Saccharomyces cerevisiae. The format is functional. The note with it: 24 h.
Data set [7] can be described thus: Aqueous solubility of the compound in pH 7.4 phosphate buffer at 1 mg after 3 hrs by UV absorption analysis. The format is physicochemical.
The target in data set [8] is T1, Albumin (Homo sapiens, UniProt P02768). Put plainly: Binding affinity to HSA assessed as quenching constant at 288 K by UV-vis absorption spectral analysis. The format is ADME. The note with it: isolated protein.
For data set [9], the system named is Calf thymus DNA. Put plainly: Binding affinity to calf thymus DNA by UV absorption spectral analysis. The format is nucleic-acid assay. The note with it: Bos taurus.
Data set [10] has as its system Staphylococcus aureus. Put plainly: Bactericidal activity against methicillin-resistant Staphylococcus aureus N315 assessed as log reduction in viable bacterial count at 4 times MIC incubated up to 1 hr followed by replating on yeast-dextrose agar plates and measured after 24 hrs by time kill assay. The format is functional.
Data set [11] has as its system Staphylococcus aureus. Put plainly: Potency index, ratio of norfloxacin MIC to test compound MIC for methicillin-resistant Staphylococcus aureus N315. The format is functional.
A further data set relates to Candida albicans. The format is functional. The note with it: ATCC 10231, 24 h.
The target of data set [12] is T1, Albumin. Put plainly: Binding affinity to HSA assessed as quenching constant at 310 K by UV-vis absorption spectral analysis. The format is ADME. The note with it: isolated protein.
Data set [13] deals with T1, Albumin. As to the kind of experiment: Binding affinity to HSA assessed as quenching constant at 298 K by UV-vis absorption spectral analysis. The format is ADME. Particulars: isolated protein.
Another data set relates to Cyberlindnera jadinii. The format is functional. The note with it: Williopsis jadinii, ATCC 9950, 24 h.
Data set [14] has as its system DNA. As to the kind of experiment: Induction of Escherichia coli supercoiled pUC19 DNA cleavage at 0.0125 mM after 16 hrs in absence of Zn2+ by ethidium bromide staining-based agarose gel electrophoresis method. The format is nucleic-acid assay.
Data set [15] relates to Staphylococcus aureus. As to the kind of experiment: Potency index, ratio of chloromycin MIC to test compound MIC for methicillin-resistant Staphylococcus aureus N315. The format is functional.
Data set [16] has as its system Calf thymus DNA. Put plainly: Inhibition of neutral red binding to calf thymus DNA up to 2 x 10^-5 mol/L by UV absorption spectral analysis. The format is nucleic-acid assay. The note with it: Bos taurus.
For the next data set, the system named is Aspergillus flavus. The format is functional. The note with it: ATCC 204304, 24 h.
In data set [17] the test system is Staphylococcus aureus. Put plainly: Antibacterial activity against methicillin-resistant Staphylococcus aureus N315 after 14 passages. The format is functional, organism-based.
In data set [18] the test system is DNA. Put plainly: Induction of Escherichia coli supercoiled pUC19 DNA cleavage at 0.0125 mM after 16 hrs in presence of Zn2+ by ethidium bromide staining-based agarose gel electrophoresis method. The format is nucleic-acid assay.
The subject of a further data set is Kregervanrija fluxuum. The format is functional. Particulars: ATCC 9888, 24 h.
The subject of data set [19] is Calf thymus DNA. Put plainly: Binding affinity to calf thymus DNA assessed as increase in hypochromic effect up to 2 x 10^-5 mol/L by UV absorption spectral analysis. The format is nucleic-acid assay. The note with it: Bos taurus.
In data set [20] the test system is Escherichia coli. As to the kind of experiment: Potency index, ratio of chloromycin MIC to test compound MIC for Escherichia coli JM109. The format is functional.
The test system of data set [21] is Salmonella typhi. As to the kind of experiment: Potency index, ratio of chloromycin MIC to test compound MIC for Bacillus typhi. The format is functional, Salmonella enterica subsp. enterica serovar Typhi.

T1 sequence (P02768 whole entry): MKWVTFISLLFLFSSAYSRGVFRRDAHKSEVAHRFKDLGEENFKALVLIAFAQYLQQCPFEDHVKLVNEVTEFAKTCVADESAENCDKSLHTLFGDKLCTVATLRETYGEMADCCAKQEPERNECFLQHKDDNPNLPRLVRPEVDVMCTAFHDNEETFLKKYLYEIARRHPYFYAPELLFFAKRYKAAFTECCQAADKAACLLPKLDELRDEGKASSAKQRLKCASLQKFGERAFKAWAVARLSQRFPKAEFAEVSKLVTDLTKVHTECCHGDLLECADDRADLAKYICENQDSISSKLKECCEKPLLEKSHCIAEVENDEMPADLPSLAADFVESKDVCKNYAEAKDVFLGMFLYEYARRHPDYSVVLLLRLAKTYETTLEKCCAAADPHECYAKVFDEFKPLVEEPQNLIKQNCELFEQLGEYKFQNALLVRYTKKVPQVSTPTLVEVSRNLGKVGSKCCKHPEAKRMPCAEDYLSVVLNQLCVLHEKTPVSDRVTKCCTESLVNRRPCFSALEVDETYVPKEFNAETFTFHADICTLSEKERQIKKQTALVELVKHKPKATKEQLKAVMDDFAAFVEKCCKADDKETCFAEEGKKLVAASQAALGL

Turning to `CCn1cc(C(=O)O)c(=O)c2cc(F)c(N3CCNCC3)cc21` [NORFLOXACIN], the MIC turned out to be 0.5 µg/mL (≈ 1.57 µM) with Staphylococcus aureus [1]; 4 µg/mL (≈ 12.5 µM) in the data set on Micrococcus luteus; 8 µg/mL (≈ 25.1 µM) against Staphylococcus aureus [3]; 8 µg/mL (≈ 25.1 µM) with Proteus vulgaris; 4 µg/mL (≈ 12.5 µM) against Bacillus spizizenii; 1 µg/mL (≈ 3.13 µM) against Escherichia coli [4]. Further, the MIC stood at 4 µg/mL (≈ 12.5 µM) against Salmonella typhi [5], 1 µg/mL (≈ 3.13 µM) against Escherichia coli [6], 4 µg/mL (≈ 12.5 µM) with Shigella dysenteriae and 16 µg/mL (≈ 50.1 µM) in the data set on Pseudomonas aeruginosa. The result in the data set with Staphylococcus aureus [2] was inactive.
Regarding `COc1cc(/C=N/n2cnnc2)c2c(c1OCc1ccccc1)CN1CCc3cc4c(cc3C1C2)OCO4` (configuration not stated), the MIC was 0.5 µg/mL (≈ 0.981 µM) against Saccharomyces cerevisiae; 8 µg/mL (≈ 15.7 µM) in the data set with Staphylococcus aureus [1]; 1 µg/mL (≈ 1.96 µM) in the data set on Micrococcus luteus; 0.5 to 32 µg/mL (≈ 0.981 to 62.8 µM) against Candida albicans; 2 µg/mL (≈ 3.92 µM) with Staphylococcus aureus [3]; 16 µg/mL (≈ 31.4 µM) in the data set with Proteus vulgaris. Further, the MIC against Cyberlindnera jadinii is 0.5 to 32 µg/mL (≈ 0.981 to 62.8 µM); against Aspergillus flavus it was 0.5 to 32 µg/mL (≈ 0.981 to 62.8 µM); with Bacillus spizizenii it was 32 µg/mL (≈ 62.8 µM); with Kregervanrija fluxuum, 0.5 to 32 µg/mL (≈ 0.981 to 62.8 µM); in the data set with Escherichia coli [4] it was 16 µg/mL (≈ 31.4 µM); in the data set with Salmonella typhi [5], 4 µg/mL (≈ 7.85 µM). For the same compound, the MIC in the data set with Escherichia coli [6] was 32 µg/mL (≈ 62.8 µM); against Shigella dysenteriae, 32 µg/mL (≈ 62.8 µM); against Pseudomonas aeruginosa, 8 µg/mL (≈ 15.7 µM). Moreover, the solubility at 3 h in [7] is 178 µg/mL (≈ 349 µM). Also, the Kq at Albumin [8] was found to be 2.55 ×10¹³ L/mol/s; at Albumin [12], 1.7 ×10¹³ L/mol/s; at Albumin [13] it was 2.05 ×10¹³ L/mol/s. Also, the K in the data set on Calf thymus DNA [9] came to 2.27 ×10⁴ L/mol. For the same compound, the FC with Staphylococcus aureus [10] was above 3. Further, the Ratio with Staphylococcus aureus [11] is given as 4; in the data set with Staphylococcus aureus [15], 8. In addition, the outcome with DNA [14] was inactive. For the same compound, the inhibition entry in the data set on Calf thymus DNA [16] was “Active”. For the same compound, the result with Staphylococcus aureus [17], in the data set with DNA [18] and with Calf thymus DNA [19] was Active.
For `CCCCCCOc1c(OC)cc(/C=N/n2cnnc2)c2c1CN1CCc3cc4c(cc3C1C2)OCO4` (configuration not stated), the MIC in the data set on Saccharomyces cerevisiae is 2 to 32 µg/mL (≈ 3.97 to 63.5 µM); with Staphylococcus aureus [1], 8 µg/mL (≈ 15.9 µM); against Micrococcus luteus, 16 µg/mL (≈ 31.8 µM); in the data set on Candida albicans it was 2 to 32 µg/mL (≈ 3.97 to 63.5 µM); against Staphylococcus aureus [3], 32 µg/mL (≈ 63.5 µM); in the data set on Proteus vulgaris it was 16 µg/mL (≈ 31.8 µM). Also, the MIC is 2 to 32 µg/mL (≈ 3.97 to 63.5 µM) against Cyberlindnera jadinii; 2 to 32 µg/mL (≈ 3.97 to 63.5 µM) in the data set with Aspergillus flavus; 8 µg/mL (≈ 15.9 µM) against Bacillus spizizenii; 2 to 32 µg/mL (≈ 3.97 to 63.5 µM) in the data set with Kregervanrija fluxuum; 32 µg/mL (≈ 63.5 µM) with Escherichia coli [4]; 2 µg/mL (≈ 3.97 µM) against Salmonella typhi [5]. Further, the MIC in the data set with Escherichia coli [6] is 4 µg/mL (≈ 7.94 µM); against Shigella dysenteriae it was 8 µg/mL (≈ 15.9 µM); against Pseudomonas aeruginosa, 32 µg/mL (≈ 63.5 µM). The solubility at 3 h in [7] came to 442 µg/mL (≈ 878 µM). The values for the Ratio in the data set on Escherichia coli [20] and with Salmonella typhi [21] were 8 and 16, respectively.
